According to ChEMBL document CHEMBL3865816, “Design, synthesis and biological evaluation of novel azaspiro analogs of linezolid as antibacterial and antitubercular agents” (Eur J Med Chem, 2016):
Converted amounts (≈) assume the structure as drawn.

Columns and labels:
Assay type in all cases: functional
Bacillus subtilis [1] = assay: Antibacterial activity against Bacillus subtilis NCIM 2010 measured after 12 hrs by spectrophotometric method; conditions: NCIM 2010, 12 h
Pseudomonas aeruginosa [2] = assay: Antibacterial activity against Pseudomonas aeruginosa NCIM 2036 at 3 ug/ml measured after 8 hrs by spectrophotometric method; conditions: NCIM 2036, 8 h
Staphylococcus aureus [3] = assay: Antibacterial activity against Staphylococcus aureus NCIM 2079 at 3 ug/ml measured after 12 hrs by spectrophotometric method; conditions: NCIM 2079, 12 h
[4] = tested on: Mycobacterium tuberculosis; assay: Antitubercular activity against dormant stage Mycobacterium tuberculosis H37Ra at 10 ug/ml measured after 12 days by XTT assay; conditions: 288 h
Bacillus subtilis [5] = assay: Antibacterial activity against Bacillus subtilis NCIM 2010 at 3 ug/ml measured after 12 hrs by spectrophotometric method; conditions: NCIM 2010, 12 h
Staphylococcus aureus [6] = assay: Antibacterial activity against Staphylococcus aureus NCIM 2079 at 30 ug/ml measured after 12 hrs by spectrophotometric method; conditions: NCIM 2079, 12 h
Pseudomonas aeruginosa [7] = assay: Antibacterial activity against Pseudomonas aeruginosa NCIM 2036 at 30 ug/ml measured after 8 hrs by spectrophotometric method; conditions: NCIM 2036, 8 h
Bacillus subtilis [8] = assay: Antibacterial activity against Bacillus subtilis NCIM 2010 at 30 ug/ml measured after 12 hrs by spectrophotometric method; conditions: NCIM 2010, 12 h
Escherichia coli [9] = assay: Antibacterial activity against Escherichia coli NCIM 2688 at 10 ug/ml measured after 8 hrs by spectrophotometric method; conditions: NCIM 2688, 8 h
Staphylococcus aureus [10] = assay: Antibacterial activity against Staphylococcus aureus NCIM 2079 measured after 12 hrs by spectrophotometric method; conditions: NCIM 2079, 12 h
Escherichia coli [11] = assay: Antibacterial activity against Escherichia coli NCIM 2688 measured after 8 hrs by spectrophotometric method; conditions: NCIM 2688, 8 h
[12] = tested on: Mycobacterium tuberculosis; assay: Antitubercular activity against dormant stage Mycobacterium tuberculosis H37Ra at 3 ug/ml measured after 12 days by XTT assay; conditions: 288 h
Pseudomonas aeruginosa [13] = assay: Antibacterial activity against Pseudomonas aeruginosa NCIM 2036 at 10 ug/ml measured after 8 hrs by spectrophotometric method; conditions: NCIM 2036, 8 h
Staphylococcus aureus [14] = assay: Antibacterial activity against Staphylococcus aureus NCIM 2079 at 10 ug/ml measured after 12 hrs by spectrophotometric method; conditions: NCIM 2079, 12 h
[15] = tested on: Mycobacterium tuberculosis; assay: Antitubercular activity against dormant stage Mycobacterium tuberculosis H37Ra measured after 12 days by XTT assay; conditions: 288 h
[16] = tested on: Mycobacterium tuberculosis; assay: Antitubercular activity against dormant stage Mycobacterium tuberculosis H37Ra at 30 ug/ml measured after 12 days by XTT assay; conditions: 288 h
Bacillus subtilis [17] = assay: Antibacterial activity against Bacillus subtilis NCIM 2010 at 10 ug/ml measured after 12 hrs by spectrophotometric method; conditions: NCIM 2010, 12 h
Escherichia coli [18] = assay: Antibacterial activity against Escherichia coli NCIM 2688 at 30 ug/ml measured after 8 hrs by spectrophotometric method; conditions: NCIM 2688, 8 h
Escherichia coli [19] = assay: Antibacterial activity against Escherichia coli NCIM 2688 at 3 ug/ml measured after 8 hrs by spectrophotometric method; conditions: NCIM 2688, 8 h
Pseudomonas aeruginosa [20] = assay: Antibacterial activity against Pseudomonas aeruginosa NCIM 2036 measured after 8 hrs by spectrophotometric method; conditions: NCIM 2036, 8 h

SMILES | IC50 (Bacillus subtilis [1]) [µg/mL] | MIC (Bacillus subtilis [1]) [µg/mL] | inhibition at 3 µg/mL (Pseudomonas aeruginosa [2]) [%] | inhibition at 3 µg/mL (Staphylococcus aureus [3]) [%] | inhibition at 10 µg/mL [4] [%] | inhibition at 3 µg/mL (Bacillus subtilis [5]) [%] | inhibition at 30 µg/mL (Staphylococcus aureus [6]) [%] | inhibition at 30 µg/mL (Pseudomonas aeruginosa [7]) [%] | inhibition at 30 µg/mL (Bacillus subtilis [8]) [%] | inhibition at 10 µg/mL (Escherichia coli [9]) [%] | IC50 (Staphylococcus aureus [10]) [µg/mL] | MIC (Staphylococcus aureus [10]) [µg/mL] | IC50 (Escherichia coli [11]) [µg/mL] | MIC (Escherichia coli [11]) [µg/mL] | inhibition at 3 µg/mL [12] [%] | inhibition at 10 µg/mL (Pseudomonas aeruginosa [13]) [%] | inhibition at 10 µg/mL (Staphylococcus aureus [14]) [%] | IC50 [15] [µg/mL] | MIC [15] [µg/mL] | inhibition at 30 µg/mL [16] [%] | further results
O=C(NC[C@H]1CN(c2ccc(N3CC4(COC4)C3)c(F)c2)C(=O)O1)c1cccnc1 | > 100 | > 100 | 40.9 | 78.2 | 5.21 | 60.8 | 96.2 | 56.3 | 99.2 | 90.5 | 1.03 (≈ 2.5 µM) | 18.3 (≈ 44.3 µM) | 0.67 (≈ 1.62 µM) | 8.33 (≈ 20.2 µM) | 3.2 | 49.5 | 85.9 | > 100 | > 100 | 63.1 | inhibition at 10 µg/mL (Bacillus subtilis [17]): 77.1%; inhibition at 30 µg/mL (Escherichia coli [18]): 94.8%; inhibition at 3 µg/mL (Escherichia coli [19]): 84.8%; IC50 (Pseudomonas aeruginosa [20]): > 100 µg/mL; MIC (Pseudomonas aeruginosa [20]): > 100 µg/mL
O=C(NC[C@H]1CN(c2ccc(N3CC4(COC4)C3)c(F)c2)C(=O)O1)c1ccc(C(F)(F)F)cc1 | > 100 | > 100 | 74.9 | 78.4 | -4.6 | 65.4 | 92.2 | 98.3 | 95.8 | 59.7 | 0.67 (≈ 1.4 µM) | 22.3 (≈ 46.5 µM) | > 100 | > 100 | -10.1 | 84.9 | 84.4 | > 100 | > 100 | -20.7 | inhibition at 10 µg/mL (Bacillus subtilis [17]): 78.8%; inhibition at 30 µg/mL (Escherichia coli [18]): 74.1%; inhibition at 3 µg/mL (Escherichia coli [19]): 33.8%; IC50 (Pseudomonas aeruginosa [20]): 1.19 µg/mL (≈ 2.48 µM); MIC (Pseudomonas aeruginosa [20]): 18.1 µg/mL (≈ 37.8 µM)
O=C1O[C@@H](CNS(=O)(=O)c2ccc(Cl)s2)CN1c1ccc(N2CC3(COC3)C2)c(F)c1 | 0.64 (≈ 1.31 µM) | 2.2 (≈ 4.51 µM) | 86.6 | 94.3 | -6.64 | 90 | 96.9 | 99 | 99.2 | 87.4 | 0.46 (≈ 0.943 µM) | 1.31 (≈ 2.68 µM) | 0.89 (≈ 1.82 µM) | 15.4 (≈ 31.6 µM) | -14.5 | 97.1 | 96.5 | > 100 | > 100 | 74.6 | inhibition at 10 µg/mL (Bacillus subtilis [17]): 97.2%; inhibition at 30 µg/mL (Escherichia coli [18]): 97.8%; inhibition at 3 µg/mL (Escherichia coli [19]): 80.3%; IC50 (Pseudomonas aeruginosa [20]): 1.13 µg/mL (≈ 2.32 µM); MIC (Pseudomonas aeruginosa [20]): 3.52 µg/mL (≈ 7.21 µM)
